Results from patent US20240190860A1, “8-CYCLO-SUBSTITUTED QUINAZOLINE DERIVATIVES AS LPA RECEPTOR 2 INHIBITORS” (CHIESI FARMACEUTICI S.p.A., priority 2021, published 2024).
pIC50: −log10 of the molar value.

Biological target: T1, human recombinant LPA2 expressed in CHO cells (Homo sapiens, UniProt Q9HBW0)
T1 construct: expressed in transfected cells; host or cells: CHO cells (CHO-hLPA2 cell line)
Assay: FLIPR calcium mobilization assay, LPA2 antagonism in CHO-hLPA2 cells
Type: cell-based
Details: CHO-hLPA2 cells, inhibition of LPA EC80 Ca2+ response, 30 min pre-incubation; read-out: LPA2 IC50
Procedure, shortened: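 Antagonist potency from four-parameter logistic fit (pIC50) of % inhibition of peak Ca2+ signal evoked by an EC80 LPA challenge. Before challenge, hLPA2-CHO cells were dye-loaded (5 μM Cal-520 AM, 2.5 mM probenecid, pH 7.4 HEPES buffer, 30 min, 37° C) and exposed 30 min to compound at 11 concentrations, 0.5% DMSO final.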

T1 sequence (Q9HBW0 whole entry): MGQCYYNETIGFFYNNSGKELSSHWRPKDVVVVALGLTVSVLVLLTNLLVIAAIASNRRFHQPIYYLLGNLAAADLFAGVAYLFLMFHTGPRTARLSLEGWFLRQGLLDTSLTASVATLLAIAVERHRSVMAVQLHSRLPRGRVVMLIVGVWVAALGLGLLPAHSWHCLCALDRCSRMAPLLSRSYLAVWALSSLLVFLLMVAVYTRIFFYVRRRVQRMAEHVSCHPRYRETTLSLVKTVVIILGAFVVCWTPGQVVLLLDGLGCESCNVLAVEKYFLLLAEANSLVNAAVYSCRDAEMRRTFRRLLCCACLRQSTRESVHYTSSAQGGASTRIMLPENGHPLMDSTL

`COCC(=O)Nc1ncc(S(=O)(=O)N2CCN(C[C@H](C)Nc3ncnc4c(-c5cccc(CN(C)C)c5)cccc34)CC2)s1` [Example 81, N-[5-({4-[(2S)-2-[(8-{3-[(dimethylamino)methyl]phenyl}quinazolin-4-yl)amino]propyl]piperazin-1-yl}sulfonyl)-1,3-thiazol-2-yl]-2-methoxyacetamide] and `Cc1nc2ccc(S(=O)(=O)N3CCN(C[C@H](C)Nc4ncnc5c(-c6cccc(CN(C)C)c6)cccc45)CC3)cc2s1` [Example 84, 8-{3-[(dimethylamino)methyl]phenyl}-N-[(2S)-1-{4-[(2-methyl-1,3-benzothiazol-6-yl)sulfonyl]piperazin-1-yl}propan-2-yl]quinazolin-4-amine] cannot be ordered by pIC50: over 8.00 for the first, over 8.00 for the second.

Compared with `Cc1nc2ccc(S(=O)(=O)N3CCN(C[C@H](C)Nc4ncnc5c(-c6cccnc6)cccc45)CC3)cc2s1` [Example 83, N-[(2S)-1-{4-[(2-methyl-1,3-benzothiazol-6-yl)sulfonyl]piperazin-1-yl}propan-2-yl]-8-(pyridin-3-yl)quinazolin-4-amine], `C[C@@H](CN1CCN(S(=O)(=O)c2ccc3[nH]c(=O)cnc3c2)CC1)Nc1ncnc2c(-c3cccnc3)cccc12` [Example 59, 6-({4-[(2S)-2-{[8-(pyridin-3-yl)quinazolin-4-yl]amino}propyl]piperazin-1-yl}sulfonyl)-1,2-dihydroquinoxalin-2-one] is lower in pIC50: over 8.00 for the first, 7.00 to 8.00 for the second.

`Cc1cc(-c2ccc(S(=O)(=O)N3CCN(C[C@H](C)Nc4ncnc5c(-c6ccccc6)cccc45)CC3)s2)on1` [Example 4, N-[(2S)-1-(4-{[5-(3-methyl-1,2-oxazol-5-yl)thiophen-2-yl]sulfonyl}piperazin-1-yl)propan-2-yl]-8-phenylquinazolin-4-amine] and `Cc1cc(-c2ccc(S(=O)(=O)N3CCN(C[C@H](C)Nc4ncnc5c(-c6cncnc6)cccc45)CC3)s2)on1` [Example 11, N-[(2S)-1-(4-{[5-(3-methyl-1,2-oxazol-5-yl)thiophen-2-yl]sulfonyl}piperazin-1-yl)propan-2-yl]-8-(pyrimidin-5-yl)quinazolin-4-amine] cannot be ordered by pIC50: over 8.00 for the first, over 8.00 for the second.

Compared with `Cc1noc(-c2ccc(S(=O)(=O)N3CCN(C[C@H](C)Nc4ncnc5c(-c6c(C)noc6C)cccc45)CC3)s2)c1C` [Example 9, 8-(3,5-dimethyl-1,2-oxazol-4-yl)-N-[(2S)-1-(4-{[5-(3,4-dimethyl-1,2-oxazol-5-yl)thiophen-2-yl]sulfonyl}piperazin-1-yl)propan-2-yl]quinazolin-4-amine], `COC(=O)Nc1nc(C)c(S(=O)(=O)N2CCN(C[C@H](C)Nc3ncnc4c(-c5ccc(N)nc5)cccc34)CC2)s1` [Example 56, methyl N-[5-({4-[(2S)-2-{[8-(6-aminopyridin-3-yl)quinazolin-4-yl]amino}propyl]piperazin-1-yl}sulfonyl)-4-methyl-1,3-thiazol-2-yl]carbamate] is lower in pIC50: over 8.00 for the first, 7.00 to 8.00 for the second.

`COC(=O)Nc1nc(C)c(S(=O)(=O)N2CCN(C[C@H](C)Nc3ncnc4c(-c5cccc(N6CCN(C)CC6)c5)cccc34)CC2)s1` [Example 35, methyl N-[4-methyl-5-({4-[(2S)-2-({8-[3-(4-methylpiperazin-1-yl)phenyl]quinazolin-4-yl}amino)propyl]piperazin-1-yl}sulfonyl)-1,3-thiazol-2-yl]carbamate] and `COC(=O)Nc1nc(C)c(S(=O)(=O)N2CCN(C[C@H](C)Nc3ncnc4c(-c5cncc(N6CCN(C)CC6)c5)cccc34)CC2)s1` [Example 67, methyl N-[4-methyl-5-({4-[(2S)-2-({8-[5-(4-methylpiperazin-1-yl)pyridin-3-yl]quinazolin-4-yl}amino)propyl]piperazin-1-yl}sulfonyl)-1,3-thiazol-2-yl]carbamate] cannot be ordered by pIC50: over 8.00 for the first, over 8.00 for the second.

First: CC(=O)Nc1cc(F)c(S(=O)(=O)N2CCN(C[C@H](C)Nc3ncnc4c(-c5cccc(CN(C)C)c5)cccc34)CC2)cc1C [Example 53, N-[4-({4-[(2S)-2-[(8-{3-[(dimethylamino)methyl]phenyl}quinazolin-4-yl)amino]propyl]piperazin-1-yl}sulfonyl)-5-fluoro-2-methylphenyl]acetamide]
Second: CC(=O)Nc1cc(F)c(S(=O)(=O)N2CCN(C[C@H](C)Nc3ncnc4c(-c5cccnc5)cccc34)CC2)cc1C [Example 42, N-[5-fluoro-2-methyl-4-({4-[(2S)-2-{[8-(pyridin-3-yl)quinazolin-4-yl]amino}propyl]piperazin-1-yl}sulfonyl)phenyl]acetamide]
The pIC50 of the first is higher: over 8.00 for the first, 7.00 to 8.00 for the second.

`COC(=O)Nc1nc(C)c(S(=O)(=O)N2CCN(C[C@H](C)Nc3ncnc4c(-c5cncc(NC=O)c5)cccc34)CC2)s1` [Example 72, methyl N-[5-({4-[(2S)-2-{[8-(5-formamidopyridin-3-yl)quinazolin-4-yl]amino}propyl]piperazin-1-yl}sulfonyl)-4-methyl-1,3-thiazol-2-yl]carbamate] and `COC(=O)Nc1nc(C)c(S(=O)(=O)N2CCN(C[C@H](C)Nc3ncnc4c(-c5cncc(C=O)c5)cccc34)CC2)s1` [Example 87, methyl N-[5-({4-[(2S)-2-{[8-(5-formylpyridin-3-yl)quinazolin-4-yl]amino}propyl]piperazin-1-yl}sulfonyl)-4-methyl-1,3-thiazol-2-yl]carbamate] cannot be ordered by pIC50: over 8.00 for the first, over 8.00 for the second.

`CC(=O)Nc1nc(C)c(S(=O)(=O)N2CCN(C[C@H](C)Nc3ncnc4c(-c5cccnc5)cccc34)CC2)s1` [Example 32, N-[4-methyl-5-({4-[(2S)-2-{[8-(pyridin-3-yl)quinazolin-4-yl]amino}propyl]piperazin-1-yl}sulfonyl)-1,3-thiazol-2-yl]acetamide] and `COC(=O)Nc1nc(C)c(S(=O)(=O)N2CCN(C[C@H](C)Nc3ncnc4c(-c5ccc(CN(C)C)nc5)cccc34)CC2)s1` [Example 60, methyl N-[5-({4-[(2S)-2-[(8-{6-[(dimethylamino)methyl]pyridin-3-yl}quinazolin-4-yl)amino]propyl]piperazin-1-yl}sulfonyl)-4-methyl-1,3-thiazol-2-yl]carbamate] cannot be ordered by pIC50: over 8.00 for the first, over 8.00 for the second.

`C[C@@H](CN1CCN(S(=O)(=O)c2ccc3c(c2)CC(=O)N3)CC1)Nc1ncnc2c(-c3cccnc3)cccc12` [Example 66, 5-({4-[(2S)-2-{[8-(pyridin-3-yl)quinazolin-4-yl]amino}propyl]piperazin-1-yl}sulfonyl)-2,3-dihydro-1H-indol-2-one] and `Cc1cc(-c2ccc(S(=O)(=O)N3CCN(CCNc4ncnc5c(-c6cccnc6)cccc45)CC3)s2)on1` [Example 19, N-[2-(4-{[5-(3-methyl-1,2-oxazol-5-yl)thiophen-2-yl]sulfonyl}piperazin-1-yl)ethyl]-8-(pyridin-3-yl)quinazolin-4-amine] cannot be ordered by pIC50: 7.00 to 8.00 for the first, over 6.00 for the second.

`COC(=O)Nc1nc(C)c(S(=O)(=O)N2CCN(C[C@H](C)Nc3ncnc4c(-c5cccc(CN(C)C)c5F)cccc34)CC2)s1` [Example 90, methyl N-[5-({4-[(2S)-2-[(8-{3-[(dimethylamino)methyl]-2-fluorophenyl}quinazolin-4-yl)amino]propyl]piperazin-1-yl}sulfonyl)-4-methyl-1,3-thiazol-2-yl]carbamate] and `COC(=O)Nc1nc(C)c(S(=O)(=O)N2CCN(C[C@H](C)Nc3ncnc4c(-c5cccc(CN6CCCC6)c5)cccc34)CC2)s1` [Example 22, methyl N-[4-methyl-5-({4-[(2S)-2-[(8-{3-[(pyrrolidin-1-yl)methyl]phenyl}quinazolin-4-yl)amino]propyl]piperazin-1-yl}sulfonyl)-1,3-thiazol-2-yl]carbamate] cannot be ordered by pIC50: over 8.00 for the first, over 8.00 for the second.

`Cc1nc2ccc(S(=O)(=O)N3CCN(C[C@H](C)Nc4ncnc5c(-c6ccc(F)c(CN(C)C)c6)cccc45)CC3)cc2s1` [Example 105, 8-{3-[(dimethylamino)methyl]-4-fluorophenyl}-N-[(2S)-1-{4-[(2-methyl-1,3-benzothiazol-6-yl)sulfonyl]piperazin-1-yl}propan-2-yl]quinazolin-4-amine] and `C[C@@H](CN1CCN(S(=O)(=O)c2ccc3[nH]c(=O)sc3c2)CC1)Nc1ncnc2c(-c3cn(C)nc3C(F)(F)F)cccc12` [Example 79, 6-({4-[(2S)-2-({8-[1-methyl-3-(trifluoromethyl)-1H-pyrazol-4-yl]quinazolin-4-yl}amino)propyl]piperazin-1-yl}sulfonyl)-2,3-dihydro-1,3-benzothiazol-2-one] cannot be ordered by pIC50: over 8.00 for the first, over 8.00 for the second.

`Cc1nc(NC(=O)CN(C)C)sc1S(=O)(=O)N1CCN(C[C@H](C)Nc2ncnc3c(-c4cn(C)nc4C(F)(F)F)cccc23)CC1` [Example 86, 2-(dimethylamino)-N-[4-methyl-5-({4-[(2S)-2-({8-[1-methyl-3-(trifluoromethyl)-1H-pyrazol-4-yl]quinazolin-4-yl}amino)propyl]piperazin-1-yl}sulfonyl)-1,3-thiazol-2-yl]acetamide] and `COC(=O)Nc1nc(C)c(S(=O)(=O)N2CCN(C[C@H](C)Nc3ncnc4c(-c5cncc(CN6CCCC6)c5)cccc34)CC2)s1` [Example 25, methyl N-[4-methyl-5-({4-[(2S)-2-[(8-{5-[(pyrrolidin-1-yl)methyl]pyridin-3-yl}quinazolin-4-yl)amino]propyl]piperazin-1-yl}sulfonyl)-1,3-thiazol-2-yl]carbamate] cannot be ordered by pIC50: over 8.00 for the first, over 8.00 for the second.

Work on `Cc1cc(-c2ccc(S(=O)(=O)N3CCN(C[C@H](C)Nc4ncnc5c(-c6cccc(CN7CCCC7)c6)cccc45)CC3)s2)on1` [Example 16, N-[(2S)-1-(4-{[5-(3-methyl-1,2-oxazol-5-yl)thiophen-2-yl]sulfonyl}piperazin-1-yl)propan-2-yl]-8-{3-[(pyrrolidin-1-yl)methyl]phenyl}quinazolin-4-amine] yielded a pIC50 of over 8.00.

Same assay, conditions: comparative compound, same in vitro assay; stated inactive on receptor LPA2; read-out: IC50 on LPA2 receptor

In the case of `COC(=O)Nc1nc(C)c(S(=O)(=O)N2CCN(C[C@H](C)Nc3ncnc4ncccc34)CC2)s1` [comparative Example A, Methyl (S)-(4-methyl-5-((4-(2-(pyrido[2,3-d]pyrimidin-4 ylamino)propyl)piperazin-1-yl)sulfonyl)thiazol-2-yl)carbamate, reference compound], the pIC50 was under 5.52.
